Columns and labels:
Type in all cases: in vivo
[1] = tested on: Avena fatua; test: Herbicidal activity, preemergence test (Example 66); design: key: A rating of 0 indicates growth as untreated control; a rating of 9 indicates death; details: pre; 1000 g/ha; assessed visually twenty days after spraying
Procedure, shortened: (§1)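 Visual 0-9 score (0 = growth as untreated control, 9 = death; one unit ≈ 11% more effect) taken twenty days post-spray. Compound was applied at 1000 g a.i./ha in 900 L/ha water, diluted from acetone containing 0.4% Triton X-155, to sown soil (pre) or seedlings (post).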

[2] = tested on: Beta vulgaris; test: as above; design: key: A rating of 0 indicates growth as untreated control; a rating of 9 indicates death; details: pre; 1000 g/ha; assessed visually twenty days after spraying
Procedure, shortened: as §1

[3] = tested on: Echinochloa crus-galli; test: as above; design: key: A rating of 0 indicates growth as untreated control; a rating of 9 indicates death; details: pre; 1000 g/ha; assessed visually twenty days after spraying
Procedure, shortened: as §1

[4] = tested on: Glycine max; test: as above; design: key: A rating of 0 indicates growth as untreated control; a rating of 9 indicates death; details: pre; 1000 g/ha; assessed visually twenty days after spraying
Procedure, shortened: as §1

[5] = tested on: Linum usitatissimum; test: as above; design: key: A rating of 0 indicates growth as untreated control; a rating of 9 indicates death; details: pre; 1000 g/ha; assessed visually twenty days after spraying
Procedure, shortened: as §1

[6] = tested on: Oryza sativa; test: as above; design: key: A rating of 0 indicates growth as untreated control; a rating of 9 indicates death; details: pre; 1000 g/ha; assessed visually twenty days after spraying
Procedure, shortened: as §1

[7] = tested on: Sinapsis alba; test: as above; design: key: A rating of 0 indicates growth as untreated control; a rating of 9 indicates death; details: pre; 1000 g/ha; assessed visually twenty days after spraying
Procedure, shortened: as §1

[8] = tested on: Zea mays; test: as above; design: key: A rating of 0 indicates growth as untreated control; a rating of 9 indicates death; details: pre; 1000 g/ha; assessed visually twenty days after spraying
Procedure, shortened: as §1

[9] = tested on: Glycine max; test: Herbicidal activity, postemergence test (Example 66); details: post; 1000 g/ha; assessed visually twenty days after spraying
Procedure, shortened: as §1

[10] = tested on: Avena fatua; test: as above; design: key: A rating of 0 indicates growth as untreated control; a rating of 9 indicates death; details: post; 1000 g/ha; assessed visually twenty days after spraying
Procedure, shortened: as §1

[11] = tested on: Beta vulgaris; test: as above; design: key: A rating of 0 indicates growth as untreated control; a rating of 9 indicates death; details: post; 1000 g/ha; assessed visually twenty days after spraying
Procedure, shortened: as §1

[12] = tested on: Echinochloa crus-galli; test: as above; design: key: A rating of 0 indicates growth as untreated control; a rating of 9 indicates death; details: post; 1000 g/ha; assessed visually twenty days after spraying
Procedure, shortened: as §1

[13] = tested on: Linum usitatissimum; test: as above; design: key: A rating of 0 indicates growth as untreated control; a rating of 9 indicates death; details: post; 1000 g/ha; assessed visually twenty days after spraying
Procedure, shortened: as §1

[14] = tested on: Oryza sativa; test: as above; design: key: A rating of 0 indicates growth as untreated control; a rating of 9 indicates death; details: post; 1000 g/ha; assessed visually twenty days after spraying
Procedure, shortened: as §1

[15] = tested on: Sinapsis alba; test: as above; design: key: A rating of 0 indicates growth as untreated control; a rating of 9 indicates death; details: post; 1000 g/ha; assessed visually twenty days after spraying
Procedure, shortened: as §1

[16] = tested on: Zea mays; test: as above; design: key: A rating of 0 indicates growth as untreated control; a rating of 9 indicates death; details: post; 1000 g/ha; assessed visually twenty days after spraying
Procedure, shortened: as §1

## CC(C)CNC(=O)c1nc(-c2ccc(F)cc2)ns1 [Example 19]
[1]
  herbicidal effects on a 0-9 scale, AVEFA: 0
[2]
  herbicidal effects on a 0-9 scale, BEAVA: 0
[3]
  herbicidal effects on a 0-9 scale, ECHCG: 0
[4]
  herbicidal effects on a 0-9 scale, GLXMA: 0
[5]
  herbicidal effects on a 0-9 scale, LIUUT: 0
[6]
  herbicidal effects on a 0-9 scale, ORYSA: 0
[7]
  herbicidal effects on a 0-9 scale, SINAL: 0
[8]
  herbicidal effects on a 0-9 scale, ZEAMX: 0
[9]
  herbicidal effects on a 0-9 scale, GLXMA: 6
[10]
  herbicidal effects on a 0-9 scale, AVEFA: 0
[11]
  herbicidal effects on a 0-9 scale, BEAVA: 8
[12]
  herbicidal effects on a 0-9 scale, ECHCG: 0
[13]
  herbicidal effects on a 0-9 scale, LIUUT: 2
[14]
  herbicidal effects on a 0-9 scale, ORYSA: 0
[15]
  herbicidal effects on a 0-9 scale, SINAL: 8
[16]
  herbicidal effects on a 0-9 scale, ZEAMX: 0

## CC(NC(=O)c1nc(-c2cccc(C(F)(F)F)c2)ns1)c1cccs1 (racemic) [Example 21, (R/S)-3-(3-Trifluoromethylphenyl)-[1,2,4]thiadiazole-5-carboxylic acid, [1-(2-thienyl)ethyl]amide]
[1]
  herbicidal effects on a 0-9 scale, AVEFA: 0
[2]
  herbicidal effects on a 0-9 scale, BEAVA: 0
[3]
  herbicidal effects on a 0-9 scale, ECHCG: 0
[4]
  herbicidal effects on a 0-9 scale, GLXMA: 0
[5]
  herbicidal effects on a 0-9 scale, LIUUT: 0
[6]
  herbicidal effects on a 0-9 scale, ORYSA: 0
[7]
  herbicidal effects on a 0-9 scale, SINAL: 0
[8]
  herbicidal effects on a 0-9 scale, ZEAMX: 0
[9]
  herbicidal effects on a 0-9 scale, GLXMA: 7
[10]
  herbicidal effects on a 0-9 scale, AVEFA: 7
[11]
  herbicidal effects on a 0-9 scale, BEAVA: 8
[12]
  herbicidal effects on a 0-9 scale, ECHCG: 8
[13]
  herbicidal effects on a 0-9 scale, LIUUT: 7
[14]
  herbicidal effects on a 0-9 scale, ORYSA: 0
[15]
  herbicidal effects on a 0-9 scale, SINAL: 9
[16]
  herbicidal effects on a 0-9 scale, ZEAMX: 0

## CC(NC(=O)c1nsc(-c2ccc(Cl)cc2)n1)c1cccs1 (racemic) [Example 23, (R/S)-5-(4-Chlorophenyl)-[1,2,4]thiadiazole-3-carboxylic acid, [1-(2-thienyl)ethyl]amide]
[1]
  herbicidal effects on a 0-9 scale, AVEFA: 0
[2]
  herbicidal effects on a 0-9 scale, BEAVA: 0
[3]
  herbicidal effects on a 0-9 scale, ECHCG: 0
[4]
  herbicidal effects on a 0-9 scale, GLXMA: 0
[5]
  herbicidal effects on a 0-9 scale, LIUUT: 0
[6]
  herbicidal effects on a 0-9 scale, ORYSA: 0
[7]
  herbicidal effects on a 0-9 scale, SINAL: 0
[8]
  herbicidal effects on a 0-9 scale, ZEAMX: 0
[9]
  herbicidal effects on a 0-9 scale, GLXMA: 7
[10]
  herbicidal effects on a 0-9 scale, AVEFA: 4
[11]
  herbicidal effects on a 0-9 scale, BEAVA: 9
[12]
  herbicidal effects on a 0-9 scale, ECHCG: 8
[13]
  herbicidal effects on a 0-9 scale, LIUUT: 7
[14]
  herbicidal effects on a 0-9 scale, ORYSA: 0
[15]
  herbicidal effects on a 0-9 scale, SINAL: 9
[16]
  herbicidal effects on a 0-9 scale, ZEAMX: 0

## CCNC(=O)c1nc(-c2ccc(F)cc2)ns1 [Example 17]
[1]
  herbicidal effects on a 0-9 scale, AVEFA: 0
[2]
  herbicidal effects on a 0-9 scale, BEAVA: 0
[3]
  herbicidal effects on a 0-9 scale, ECHCG: 0
[4]
  herbicidal effects on a 0-9 scale, GLXMA: 0
[5]
  herbicidal effects on a 0-9 scale, LIUUT: 0
[6]
  herbicidal effects on a 0-9 scale, ORYSA: 0
[7]
  herbicidal effects on a 0-9 scale, SINAL: 0
[8]
  herbicidal effects on a 0-9 scale, ZEAMX: 0
[9]
  herbicidal effects on a 0-9 scale, GLXMA: 5
[10]
  herbicidal effects on a 0-9 scale, AVEFA: 4
[11]
  herbicidal effects on a 0-9 scale, BEAVA: 7
[12]
  herbicidal effects on a 0-9 scale, ECHCG: 2
[13]
  herbicidal effects on a 0-9 scale, LIUUT: 2
[14]
  herbicidal effects on a 0-9 scale, ORYSA: 0
[15]
  herbicidal effects on a 0-9 scale, SINAL: 8
[16]
  herbicidal effects on a 0-9 scale, ZEAMX: 2

Reference: EP0726261A1, “Herbidical 1,2,4 thiadiazoles” (American Cyanamid Company, priority 1995, dated 1996)
